According to BigSolDB 2.1:

CCOc1cccc(C=O)c1O
solubility (mole fraction)
Settings | 278.15 K | 283.15 K | 288.15 K | 293.15 K | 298.15 K | 303.15 K | 308.15 K | 313.15 K
in acetone | 0.155 | 0.217 | 0.272 | 0.325 | 0.384 | 0.446 | 0.523 | 0.605
in acetonitrile | 0.104 | 0.154 | 0.206 | 0.254 | 0.303 | 0.352 | 0.415 | 0.498
in ethanol | 0.0153 | 0.0195 | 0.0287 | 0.0433 | 0.0662 | 0.102 | 0.145 | 0.214
in ethyl acetate | 0.134 | 0.174 | 0.209 | 0.25 | 0.294 | 0.344 | 0.403 | 0.497
in isopropanol | 0.0095 | 0.0143 | 0.0197 | 0.0284 | 0.0437 | 0.0642 | 0.0925 | 0.151
in methanol | 0.0196 | 0.0355 | 0.0567 | 0.0786 | 0.132 | 0.211 | 0.304 | 0.434
in methyl acetate | 0.137 | 0.185 | 0.227 | 0.281 | 0.335 | 0.388 | 0.475 | 0.563
in n-butanol | 0.0163 | 0.0206 | 0.0287 | 0.0398 | 0.0566 | 0.0795 | 0.116 | 0.164
in n-butyl acetate | 0.0985 | 0.125 | 0.158 | 0.188 | 0.237 | 0.281 | 0.334 | 0.409
in n-propanol | 0.0145 | 0.0198 | 0.0262 | 0.0395 | 0.0576 | 0.0824 | 0.124 | 0.176
in n-propyl acetate | 0.105 | 0.136 | 0.164 | 0.205 | 0.248 | 0.312 | 0.374 | 0.464
in water | 5.24e-05 | 6.55e-05 | 7.32e-05 | 8.68e-05 | 0.000106 | 0.000125 | 0.000155 | 0.000191
